Data set [1] is described as follows: Solubility of PRASL in the adhesive matrix. The format is physicochemical. Particulars: acrylate adhesive matrix DuroTak 387-2287. The source says:
The selection of suitable adhesive matrices occurs based on the solubility of PRASL in the adhesive matrices. Suitable adhesive matrices for the present invention are those in which the solubility of PRASL is between 0.1 to 5%. Adhesive matrices, in which the solubility of PRASL is between 0.1 to 2%, have proven to be especially suitable.
If the solubility of the adhesive matrix used for PRASL is larger than 2 to 5%, as e.g. in the case of the acrylate adhesive matrix, DuroTak 387-2287, the entire effective ingredient amount dissolves after film-formation and the advantages of the amorphous effective ingredient dispersion according to the present invention cannot be employed.

The conditions of data set [2]: background statement; cited from earlier work.

The values that follow come from patent US20060134188A1, “Transdermal pharmaceutical preparation with a progesterone A-specific ligand (PRASL) as active ingredient” (priority 2004, published 2006).

The structures appear in SMILES notation.

For the compound `O=C1OCc2cc(NC(=O)[C@](O)(CC3(c4cc(C(F)(F)F)ccc4F)CC3)C(F)(F)F)ccc21` [PRASL, (R)-3-{1-[2-fluoro-5-(trifluoromethyl)-phenyl]-cyclopropyl}-2-hydroxy-N-(phthalid-5-yl)-2-(trifluoromethyl)-propanamide], the “Solubility of the adhesive matrix for PRASL” value in data set [1] was 2 to 5%. In addition, in data set [2], the “Daily dosage that activates pharmacological effects” value is reported as 30 micrograms.
